The record followed here is US10759809B2 (priority 2017, dated 2020).

Where a name gives a salt, the structure may show the parent alone.

One data set relates to Mice. As to conditions: both, mouse, in vivo.
Another data set concerns SD rat. The data set can be described thus: animal or person. Format: in vivo. As to conditions: po, 1 h.
In another data set the test system is SD rats. Particulars: male, rat, in vivo.
A further data set concerns Kunming mice. The data set can be described thus: animal or person. As to conditions: Mus musculus, po, 1 h. Format: in vivo.

The ED50 is the midpoint of the dose-response relation. In the case of `[2H]C([2H])(C1CC1)N1CC[C@]23c4c5ccc(O)c4O[C@H]2[C@@]2(OC)CC[C@@]3(C[C@@H]2[C@](C)(O)C(C)(C)C)[C@H]1C5` [I1•HCl, (2S)-2-[(5R, 6R, 7R, 14S)—N-(cyclopropyl-dideuteromethyl)-4,5-epoxy-6, 14-ethano-3-hydroxy-6-methoxymorphinan-7-yl]-3,3-dimethylbutan-2-ol], in the data set on Mice, the “Inhibition of activated carbon excretion” value is listed as 36.31 ± 2.78%. Moreover, the median effective dose (ED50) was 19 ± 7.29 mg/kg with SD rat and 6.54 ± 2.96 mg/kg in the data set with Kunming mice. Besides, in the data set on SD rats, the “Residence time in drug-side box (Mean ± S, s)” value is listed as 149.19 ± 36.88 s.
Regarding `[2H]c1c([2H])c2c3c(c1O)O[C@H]1[C@@]4(OC)CC[C@@]5(C[C@@H]4[C@](C)(O)C(C)(C)C)[C@@H](C2)N(C([2H])([2H])C2CC2)CC[C@]315` [I6•HCl, (2S)-2-[(5R, 6R, 7R, 14S)-1,2-dideutero-N-(cyclopropyl-dideuteromethyl)-4,5-epoxy-6,14-ethano-3-hydroxy-6-methoxymorphinan-7-yl]-3,3-dimethylbutan-2-ol], the ED50 was 18 ± 8.56 mg/kg in the data set with SD rat and 5.83 ± 2.23 mg/kg with Kunming mice.
On the same counts, the results for `[2H]C1C([2H])[C@]23C[C@H]([C@](C)(O)C(C)(C)C)[C@@]1(OC)C1Oc4c(O)ccc5c4[C@@]12CCN(CC1CC1)[C@@H]3C5` (stereo partly drawn) [I7•HCl, (2S)-2-[(5R, 6R, 7R, 14S)—N-(cyclopropyl-methyl)-4,5-epoxy-6,14-dideuteroethano-3-hydroxy-6-methoxymorphinan-7-yl]-3,3-dimethylbutan-2-ol] are 38 ± 19.7 mg/kg and 12 ± 11.7 mg/kg.
In the case of `[2H]c1c([2H])c2c3c(c1O)O[C@H]1[C@@]4(OC)CC[C@@]5(C[C@@H]4[C@](C)(O)C(C)(C)C)[C@@H](C2)N(CC2CC2)CC[C@]315` [I5•HCl, (2S)-2-[(5R, 6R, 7R, 14S)-1,2-dideutero-N-cyclopropylmethyl-4,5-epoxy-6,14-ethano-3-hydroxy-6-methoxymorphinan-7-yl]-3,3-dimethylbutan-2-ol], the figures for the 50% effective dose (ED50) in the data set with SD rat and in the data set with Kunming mice were 31.1 ± 10.9 mg/kg and 8.02 ± 11.3 mg/kg, respectively.
On to `CO[C@]12CC[C@@]3(C[C@@H]1[C@](C)(O)C(C)(C)C)[C@H]1Cc4ccc(O)c5c4[C@@]3(CCN1CC1CC1)[C@H]2O5` [buprenorphine•HCl, (2S)-2-[(5R, 6R, 7R, 14S)—N-cyclopropylmethyl-4,5-epoxy-6, 14-ethano-3-hydroxy-6-methoxymorphinan-7-yl]-3,3-di methylbutan-2-ol, reference compound], for which, in the data set on Mice, the “Inhibition of activated carbon excretion” value was 63.87 ± 2.16%. Further, the ED50 in the data set on SD rat was > 50 mg/kg; in the data set on Kunming mice, 11.8 ± 11.7 mg/kg. Moreover, in the data set on SD rats, the “Residence time in drug-side box (Mean ± S, s)” value is 277.56 ± 164.99 s.
